According to ChEMBL document CHEMBL4130444, “1,4-Naphthoquinones as inhibitors of Itch, a HECT domain-E3 ligase, and tumor growth suppressors in multiple myeloma” (Eur J Med Chem, 2017):

Columns and labels:
MDA-MB-231 = assay: Antiproliferative activity against human MDA-MB-231 cells incubated for 48 hrs by SRB assay; format: functional; details: MDA-MB-231, 48 h
HCT-116 = assay: Antiproliferative activity against human HCT116 cells incubated for 48 hrs by SRB assay; format: functional; details: HCT-116, 48 h

GI50 (MDA-MB-231) [µM]	GI50 (HCT-116) [µM]	SMILES
> 10	> 10	O=C(Nc1ccc2[nH]cnc2c1)c1ccc(CNC2=C(Cl)C(=O)c3ccccc3C2=O)cc1
9.2	5.5	O=C(Nc1cnccn1)c1ccc(CNC2=C(Cl)C(=O)c3ccccc3C2=O)cc1
> 10	> 10	O=C(Nc1cccc2[nH]ccc12)c1ccc(CNC2=C(Cl)C(=O)c3ccccc3C2=O)cc1
> 10	> 10	O=C(Nc1ccccc1)c1ccc(CNC2=C(Cl)C(=O)c3ccccc3C2=O)cc1
> 10	> 10	Nc1ccn(C(=O)c2ccc(CNC3=C(Cl)C(=O)c4ccccc4C3=O)cc2)n1
> 10	> 10	O=C(Nc1cnc2ccccc2c1)c1ccc(CNC2=C(Cl)C(=O)c3ccccc3C2=O)cc1
> 10	> 10	O=C(Nc1ccc2[nH]ccc2c1)c1ccc(CNC2=C(Cl)C(=O)c3ccccc3C2=O)cc1
> 10	> 10	O=C(Nc1ccc2[nH]ncc2c1)c1ccc(CNC2=C(Cl)C(=O)c3ccccc3C2=O)cc1
